Experimental data published in US20220339135A1, “COMPOSITIONS AND METHODS FOR MODULATING AN INFLAMMATORY RESPONSE” (Enzychem Lifesciences Corporation, priority 2019, published 2022).
“Also recorded” adds a separate entry of the source.

Tests used:
[1] = system: Pseudomonas aeruginosa strain K (PAK) in bone marrow-derived macrophages (BMDMs); assay: In vitro phagocytosis and bacterial killing assay, BMDMs; assay type: cell-based; conditions: for phagocytic activity of BMDMs (intracellular PAK CFU, confocal): 100 μg/ml pretreated 1 h, PAK MOI 50 for 1 h
Description: For immunofluorescence-based measurement of phagocytosis and clearance, BMDMs were grown on glass coverslips in 24-well plates. The cells were infected with PAK (MOI, 50) for different time intervals and then were treated with 10 μg/ml gentamycin for 30 minutes to remove extracellular PAK attached to the cell surface. The infected cells were washed with ice-cold PBS several times, followed by fixing for 10 minutes at room temperature in methanol or 10% paraformaldehyde. The cells were stained with anti-Pseudomonas antibody (Abcam) and then were incubated with goat anti-rabbit IgG secondary antibody conjugated with Alexa Fluor 488. Slides were mounted using the mounting medium ProLong™ Gold antifade reagent with the DNA-binding blue dye DAPI (Thermo Scientific™) and were imaged with a confocal microscope (Zeiss LSM 800, Germany).
(§1) For CFU counting-based phagocytosis and bacterial killing assay, PAK was cultured at 37° C. overnight with continuous shaking and was resuspended in PBS. The BMDMs or THP-1 cells were incubated with PAK (MOI, 50) for different time intervals at 37° C. The cells were further cultured in the medium containing 10 μg/ml gentamycin for 30 minutes and then were lysed by 0.5% SDS. The diluted aliquots were spread on LB agar plates, and CFU was counted after incubation of the plates overnight at 37° C.
To evaluate whether PLAG accelerates phagocytosis of PAK by macrophages in vitro systems, bone marrow-derived macrophages (BMDMs) were pretreated with PLAG, and then infected with PAK (MOI, 50) for different lengths of time. Gentamycin ([…]) was treated to the cells for 30 minutes to remove extracellular bacteria. Immunofluorescence micrographs of BMDMs incubated with PAK confirmed that PLAG accelerated not only engulfment of bacteria, but also clearance of bacteria (FIG. 5A). […] PAK is recognized by toll-like receptors 4 and 5 and PAK is phagocytosed by co-cultured macrophage at 2 hrs and sustained for 4 hrs. In the PLAG treated cells, phagocytosis of PAK starts at 30 min and maximized at 1 hr and the invading PAK is cleared at 2 hrs.
For the CFU counting-based phagocytosis assay, PAK was cultured at 37° C. overnight with continuous shaking and then resuspended in PBS. BMDMs were pretreated with 100 μg/ml of PLAG or PLH for 1 hour. The cells were infected with PAK (multiplicity of infection [MOI], 50) for 1 h, and then treated with 10 μg/ml gentamycin for 30 minutes to remove extracellular PAK attached to the cell surface. Then, the cells were lysed with 0.5% SDS and serially diluted in PBS to spread on LB agar plates. CFU counts were performed after overnight incubation at 37° C.
For the immunofluorescence-based measurement of phagocytosis and clearance, BMDMs were grown on glass coverslips in 24-well plates. The cells were infected with PAK (MOI, 50) for 1 hour and then treated with 10 μg/ml gentamycin for 30 minutes to remove extracellular PAK attached to the cell surface. The infected cells were washed several times with ice-cold PBS and then fixed for 10 minutes at room temperature in methanol or 10% paraformaldehyde. The cells were then incubated with anti-Pseudomonas primary and Alexa Fluor 488-conjugated goat anti-rabbit IgG secondary antibodies. The coverslips were mounted on slides with ProLong Gold antifade reagent with DAPI (Thermo Fisher Scientific) and imaged with a confocal microscope (LSM 800; Zeiss, Germany). […]

PAK in THP-1 cells = assay: In vitro phagocytosis of PAK, THP-1 cells; assay type: cell-based, human; conditions: 1 hour after infection
Description: as §1

[2] = PAK MOI 50, PLAG pretreated BMDMs

Compound | phagocytic activity of BMDMs (intracellular PAK CFU, confocal) [1] | invading PAK is cleared [1, 2] | phagocytosis of PAK maximized [1, 2] | phagocytosis of PAK starts [1, 2] | phagocytosis of PAK by THP-1 cells (PAK in THP-1 cells)
CCCCC/C=C\C/C=C\CCCCCCCC(=O)OC(COC(C)=O)COC(=O)CCCCCCCCCCCCCCC (racemic) [PLAG, 1-palmitoyl-2-linoleoyl-3-acetylglycerol] | most advanced phagocytosis; also recorded: most effectively enhanced | 2 h | 1 h | 30 min | advanced phagocytosis
CCCCC/C=C\C/C=C\CCCCCCCC(=O)OC(CO)COC(=O)CCCCCCCCCCCCCCC (stereo not shown) [PLH, palmitic linoleic hydroxyl glycerol, reference compound] | little effect |  |  |  | little effect
